The NIST ThermoML archive (doi:10.1007/s10765-014-1617-1)

Key:
[1] = refractive index (Na D-line) (dimensionless); settings: 101.33 kPa, Liquid, Standard Abbe refractometry
[2] = 101.33 kPa, Liquid; for thermal conductivity: Parallel plate method; for mass density: Vibrating tube method

CCCCn1cc[n+](C)c1.N#C[B-](C#N)(C#N)C#N [1-butyl-3-methyl-1H-imidazolium tetracyanoborate]
Settings	mass density, [2] [kg/m3]	refractive index, [1]	thermal conductivity, [2] [W/m/K]
283.15 K	1021.17	1.4561	0.178
288.15 K	1017.37	–	–
293.15 K	1013.59	1.4533	0.1791
298.15 K	1009.83	–	–
303.15 K	1006.09	1.45	0.1756
308.15 K	1002.37	–	–
313.15 K	998.67	1.4473	0.1737
318.15 K	995	–	–
323.15 K	991.34	–	0.1732
328.15 K	987.71	–	–
333.15 K	984.09	–	0.1693
338.15 K	980.5	–	–
343.15 K	976.92	–	0.1664
348.15 K	973.37	–	–
353.15 K	969.82	–	0.1632
358.15 K	966.3	–	–
363.15 K	962.8	–	–

CCCCCC[n+]1ccn(C)c1.N#C[C-](C#N)C#N [3-hexyl-1-methylimidazolium tricyanomethanide]
Settings	mass density, [2] [kg/m3]	refractive index, [1]	thermal conductivity, [2] [W/m/K]
283.15 K	1030.55	1.5084	0.1817
288.15 K	1027.22	–	–
293.15 K	1023.92	1.5055	0.1815
298.15 K	1020.62	–	–
303.15 K	1017.35	1.5026	0.1831
308.15 K	1014.08	–	–
313.15 K	1010.83	1.4994	0.1817
318.15 K	1007.58	–	–
323.15 K	1004.35	–	0.181
328.15 K	1001.14	–	–
333.15 K	997.93	–	0.1792
338.15 K	994.74	–	–
343.15 K	991.57	–	0.1774
348.15 K	988.4	–	–
353.15 K	985.24	–	0.1762
358.15 K	982.11	–	–
363.15 K	978.98	–	–

CCCCCCn1cc[n+](C)c1.N#C[B-](C#N)(C#N)C#N [1-hexyl-3-methylimidazolium tetracyanoborate]
[2]
Settings	thermal conductivity [W/m/K]
283.15 K	0.1762
293.15 K	0.1752
303.15 K	0.1741
313.15 K	0.1714
323.15 K	0.1722
333.15 K	0.1697
343.15 K	0.1677
353.15 K	0.1656

CCCCCCCCn1cc[n+](C)c1.N#CC(=C=[N-])C#N [1-methyl-3-octylimidazolium tricyanomethanide]
Settings	mass density, [2] [kg/m3]	refractive index, [1]	thermal conductivity, [2] [W/m/K]
283.15 K	1010.18	1.5048	0.1717
288.15 K	1006.97	–	–
293.15 K	1003.75	1.5021	0.1689
298.15 K	1000.54	–	–
303.15 K	997.34	1.4993	0.1675
308.15 K	994.15	–	–
313.15 K	990.97	1.4964	0.1685
318.15 K	987.8	–	–
323.15 K	984.65	–	0.1678
328.15 K	981.5	–	–
333.15 K	978.37	–	0.1655
338.15 K	975.25	–	–
343.15 K	972.14	–	0.1642
348.15 K	969.05	–	–
353.15 K	965.97	–	0.1639
358.15 K	962.89	–	–
363.15 K	959.82	–	–

CCn1cc[n+](C)c1.N#C[C-](C#N)C#N [1-ethyl-3-methyl-1H-imidazolium tricyanomethanide]
Settings	mass density, [2] [kg/m3]	refractive index, [1]	thermal conductivity, [2] [W/m/K]
283.15 K	1091.96	1.516	0.1966
288.15 K	1088.37	–	–
293.15 K	1084.8	1.5131	0.1958
298.15 K	1081.25	–	–
303.15 K	1077.71	1.5101	0.1955
308.15 K	1074.19	–	–
313.15 K	1070.69	1.5071	0.1928
318.15 K	1067.21	–	–
323.15 K	1063.74	–	0.1917
328.15 K	1060.29	–	–
333.15 K	1056.86	–	0.1896
338.15 K	1053.44	–	–
343.15 K	1050.04	–	0.1883
348.15 K	1046.66	–	–
353.15 K	1043.28	–	0.1874
358.15 K	1039.93	–	–
363.15 K	1036.58	–	–

CCCCCCCCn1cc[n+](C)c1.N#C[B-](C#N)(C#N)C#N [1-methyl-3-octylimidazolium tetracyanoborate]
Settings	mass density, [2] [kg/m3]	refractive index, [1]	thermal conductivity, [2] [W/m/K]
283.15 K	985.65	1.4603	0.1703
288.15 K	982.14	–	–
293.15 K	978.62	1.457	0.1694
298.15 K	975.1	–	–
303.15 K	971.6	1.4541	0.1682
308.15 K	968.12	–	–
313.15 K	964.65	1.4509	0.1644
318.15 K	961.2	–	–
323.15 K	957.76	–	0.1586
328.15 K	954.34	–	–
333.15 K	950.94	–	0.1573
338.15 K	947.55	–	–
343.15 K	944.17	–	0.1543
348.15 K	940.82	–	–
353.15 K	937.45	–	0.1513
358.15 K	934.15	–	–
363.15 K	930.84	–	–

CCCCCCCCCC[n+]1ccn(C)c1.N#C[C-](C#N)C#N [3-decyl-1-methylimidazolium tricyanomethanide]
Settings	mass density, [2] [kg/m3]	refractive index, [1]	thermal conductivity, [2] [W/m/K]
283.15 K	992.5	1.5008	0.168
288.15 K	989.38	–	–
293.15 K	986.25	1.4981	0.1694
298.15 K	983.11	–	–
303.15 K	979.98	1.495	0.1674
308.15 K	976.85	–	–
313.15 K	973.73	1.4918	0.1676
318.15 K	970.63	–	–
323.15 K	967.53	–	0.1673
328.15 K	964.44	–	–
333.15 K	961.37	–	0.1646
338.15 K	958.31	–	–
343.15 K	955.24	–	0.162
348.15 K	952.2	–	–
353.15 K	949.17	–	0.1593
358.15 K	946.15	–	–
363.15 K	943.13	–	–

CCCCCCCCCCn1cc[n+](C)c1.N#C[B-](C#N)(C#N)C#N [1-decyl-3-methyl-1H-imidazolium tetracyanoborate]
Settings	mass density, [2] [kg/m3]	refractive index, [1]	thermal conductivity, [2] [W/m/K]
283.15 K	972.81	1.4612	0.1665
288.15 K	969.36	–	–
293.15 K	965.94	1.4584	0.1673
298.15 K	962.51	–	–
303.15 K	959.09	1.4552	0.1667
308.15 K	955.68	–	–
313.15 K	952.29	1.4522	0.1646
318.15 K	948.91	–	–
323.15 K	945.54	–	0.164
328.15 K	942.19	–	–
333.15 K	938.85	–	0.1613
338.15 K	935.53	–	–
343.15 K	932.22	–	0.16
348.15 K	928.94	–	–
353.15 K	925.65	–	0.1586
358.15 K	922.39	–	–
363.15 K	919.14	–	–
